Results as given in paper PMC7108740, “Exploring the molecular structures that confer ligand selectivity for galanin type II and III receptors” (PLoS ONE, 2020).

How the values were obtained:
[1] = biological target: T1, GALR3 single mutant S^266T (Homo sapiens, UniProt O60755, S266T); assay: SRE-luc luciferase assay, GALR3 S266T; format: cell-based; conditions: GALR3 S^266T; SRE-luc in HEK293 Gqi cells, ligand 6 h; mean ± S.E.; SEM
T1 construct: expressed in transfected cells; host or cells: HEK293 cells stably expressing Gqi
T1 sequence (O60755 whole entry S266T): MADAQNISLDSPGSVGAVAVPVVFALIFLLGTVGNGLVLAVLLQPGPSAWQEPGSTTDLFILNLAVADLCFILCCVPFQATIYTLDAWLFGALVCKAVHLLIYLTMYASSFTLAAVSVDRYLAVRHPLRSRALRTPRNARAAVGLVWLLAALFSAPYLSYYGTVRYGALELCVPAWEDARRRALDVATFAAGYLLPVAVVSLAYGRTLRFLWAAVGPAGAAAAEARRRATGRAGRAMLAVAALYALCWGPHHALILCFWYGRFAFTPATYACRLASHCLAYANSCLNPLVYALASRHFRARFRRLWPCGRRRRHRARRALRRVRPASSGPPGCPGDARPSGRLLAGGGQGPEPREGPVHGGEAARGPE
Description: For domain swapping between GALR2 and GALR3, individual cDNA fragments of interest were amplified by polymerase chain reaction (PCR) with Pfu polymerase (ELPIS Biotech, Daejeon, Korea) and two specific primers, one corresponding to the 5' or 3' end of the GALR2 or GALR3 cDNA and the other to the region of overlap between the two receptors. The two resulting fragments, one from GALR2 and the other from GALR3, were subjected to a second round of PCR to generate the chimeric cDNAs. To construct single, double-, triple-, pentuple-, hextuple-, and septuple-mutant receptors, amino acids of GALR3 were substituted for the amino acids at the corresponding positions in GALR2 using PCR-based site-directed mutagenesis. All of the chimeric constructs were cloned into the pcDNA3 expression vector at HindⅢ and XbaⅠ sites. The DNA sequences of the chimeras were verified by automatic sequencing. […] The luciferase activity in 50 μl cell extract was determined using a luciferase assay system according to the standard protocol for the Synergy 2 Multi-Mode Microplate Reader (BioTek, Winooski, VT, USA). […] The concentrations of agonists that induced half-maximal stimulation (EC50) were calculated using the GraphPad PRISM5 software (GraphPad software, Inc., San Diego, CA). […]

GALR3 septuple = biological target: T2, GALR3 septuple (Homo sapiens, UniProt O60755, A190V/A191F/C272L/G192S/L100F/Y103F/Y107H); assay: cAMP assay (inhibition of forskolin-induced cAMP), GALR3 septuple mutant; format: cell-based; conditions: Glosensor-22F cAMP HEK293 cells, agonist 10 min then forskolin 10 μM, mean ± SE, SEM
T2 construct: expressed in transfected cells; host or cells: HEK293 cells stably expressing pGlosensor-22F cAMP plasmid
T2 sequence (O60755 1-368 L100F/Y103F/Y107H/A190V/A191F/G192S/C272L): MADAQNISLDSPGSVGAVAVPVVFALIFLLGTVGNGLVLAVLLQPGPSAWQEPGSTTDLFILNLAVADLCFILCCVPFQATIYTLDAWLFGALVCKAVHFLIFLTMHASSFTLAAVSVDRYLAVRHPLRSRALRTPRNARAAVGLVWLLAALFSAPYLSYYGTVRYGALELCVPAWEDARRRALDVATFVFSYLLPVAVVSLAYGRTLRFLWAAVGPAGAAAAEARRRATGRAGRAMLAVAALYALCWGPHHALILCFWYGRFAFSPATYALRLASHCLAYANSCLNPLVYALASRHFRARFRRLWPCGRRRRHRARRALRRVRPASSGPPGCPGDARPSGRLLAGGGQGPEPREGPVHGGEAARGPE
Experimental: SPX-induced or Qu-SPX-induced cyclic adenosine monophosphate (cAMP) mobilization was measured in HEK293 cells stably expressing the pGlosensor^TM-22F cAMP plasmid (Promega Corp., Madison, WI, USA). The Glosensor-22F cAMP HEK293 cells were seeded on 96-well plates at a density of 2.0 × 10^4 cells/well 24 h before transfection. A mixture including 100 ng expression plasmid and lipofectamine 2000 reagent in diluted Opti-MEM (Gibco) was incubated at room temperature for 20 min. The mixtures were added into each well according to the manufacturer's instructions (Invitrogen, CA, USA). After 48 h, Glosensor cAMP substrates were added to the transfected cells in CO2-independent media. After 2 h, the cells were incubated with a range of agonist concentrations or vehicle for 10 min and then exposed to foskolin (10 μM). Luminescence was measured for up to 30 min using a Microplate Reader (BioTek, Winooski, VT, USA).
Data analysis was performed by non-linear regression with a sigmoidal dose-response curve. The concentrations of agonists that induced half-maximal stimulation (EC50) were calculated using the GraphPad PRISM5 software (GraphPad software, Inc., San Diego, CA). All data are presented as the mean ± standard error (SE) of at least three independent experiments. […]

## CSCC[C@H](NC(=O)[C@H](C)NC(=O)[C@H](CCC(N)=O)NC(=O)[C@@H]1CCCN1C(=O)[C@@H](NC(=O)[C@H](Cc1c[nH]c2ccccc12)NC(=O)[C@@H](N)CC(N)=O)[C@@H](C)O)C(=O)N[C@@H](CC(C)C)C(=O)N[C@@H](Cc1ccc(O)cc1)C(=O)N[C@@H](CC(C)C)C(=O)N[C@@H](CCCCN)C(=O)NCC(=O)N[C@@H](C)C(=O)N[C@@H](CCC(N)=O)C(N)=O [SPX, reference compound]
[1]
  EC50: 38 ± 10.5 nM
GALR3 septuple
  EC50: 77.6 ± 38.7 nM
